From US20130203718A1 (priority 2010, published 2013)
Entries after “also recorded” stand apart in the source; their conditions may differ.

Tests used:
hPRB = biological target: T1, hPRB (Homo sapiens, UniProt P06401); assay: PR transactivation assay (GRE2-Luc) in HEK293T cells transiently expressing hPRB; format: cell-based; set-up: expressed in transfected cells; host or cells: HEK 293T
T1 sequence (P06401 1-933): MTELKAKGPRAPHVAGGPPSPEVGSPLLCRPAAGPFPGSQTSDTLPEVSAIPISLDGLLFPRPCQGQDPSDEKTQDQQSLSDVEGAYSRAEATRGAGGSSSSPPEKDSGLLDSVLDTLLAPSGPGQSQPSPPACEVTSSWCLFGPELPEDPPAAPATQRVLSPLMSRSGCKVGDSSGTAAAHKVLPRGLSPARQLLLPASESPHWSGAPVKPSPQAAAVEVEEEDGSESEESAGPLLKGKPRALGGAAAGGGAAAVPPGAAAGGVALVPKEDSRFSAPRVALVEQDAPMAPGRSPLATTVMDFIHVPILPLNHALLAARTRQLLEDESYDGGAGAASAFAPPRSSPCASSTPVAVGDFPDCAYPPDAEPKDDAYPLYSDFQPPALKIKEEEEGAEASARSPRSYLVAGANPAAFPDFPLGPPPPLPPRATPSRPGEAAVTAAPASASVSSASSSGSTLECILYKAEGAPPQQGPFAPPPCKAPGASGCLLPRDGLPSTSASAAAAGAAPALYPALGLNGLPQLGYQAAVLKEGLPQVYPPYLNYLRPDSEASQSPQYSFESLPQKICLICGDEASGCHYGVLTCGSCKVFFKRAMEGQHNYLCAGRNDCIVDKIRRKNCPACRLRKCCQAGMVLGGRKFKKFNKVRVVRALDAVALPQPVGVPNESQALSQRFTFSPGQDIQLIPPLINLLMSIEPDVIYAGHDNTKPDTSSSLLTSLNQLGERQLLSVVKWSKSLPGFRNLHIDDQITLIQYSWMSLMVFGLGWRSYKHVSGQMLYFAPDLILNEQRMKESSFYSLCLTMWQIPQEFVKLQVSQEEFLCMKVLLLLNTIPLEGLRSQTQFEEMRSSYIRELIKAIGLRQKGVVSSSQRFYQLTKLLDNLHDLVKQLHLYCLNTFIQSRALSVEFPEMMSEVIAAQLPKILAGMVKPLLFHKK
Procedure: PR Transactivation Assays in HEK 293T.
HEK 293T cells were routinely cultured in a high-glucose DMEM medium (Invitrogene, Cergy Pontoise, France), 20 mM HEPES, 2 mM glutamine, 1× non essential amino acids, 100 U/mL penicillin and 100 μg/mL streptomycin supplemented with 10% foetal calf serum (FCS) in a humidified atmosphere at 37° C. and with 5% CO2. One day before transfection, the cells were seeded at 3×10^6 cells/[…] diameter culture Petri dish and cultured overnight in the same medium. Six hours before transfection, the FCS supplemented medium was replaced by the same medium supplemented with 10% dextran-charcoal treated FCS. Transfections were carried out using the calcium phosphate precipitation method. The calcium phosphate precipitate was prepared with 0.5 μg pchPRB (Petit-Topin, et al Mol Pharmacol, 2009, 75, 1317), 7 μg reporter vector (GRE2-Luc from A. Biola-Vidamment and M. Pallardy) and 1 μg of pcβgal for an internal transfection control, in 1 mL 140 mM NaCl, 0.75 mM Na2HPO4, 25 mM HEPES, 125 mM CaCl2 pH 7.05 and added to the cells 30 minutes later. After 16 h incubation, the transfected cells were washed with PBS containing 2.5 mM EDTA, trypsinized and pooled. The transfected cells were replated in 24-well plates (100.000 transfected cells/well). […] Cells were lysed in 300 μl PBS 1×, 25 mM glycylglycine, 4 mM EDTA, 15% glycerol, 1% triton X-100, 15 mM MgSO4, pH 7.8 supplemented with 2 mM β-mercaptoethanol. The luciferase activities were quantified by using a Mithras LB940 reader microplates (Berthold).
The APRn “agonist efficacy” was determined from the following formula:
Agonist efficacy=[luciferase activity]1/[luciferase activity]2×100
The APRn “antagonist efficacy” was calculated from the following formula:
Antagonist efficacy=100−[luciferase activity]1/[luciferase activity]2×100
The results are the mean±SEM of three to five independent experiments.
All the synthesized APRn were classified in 4 series depending on the nature of their C3 substituent (R1/R′1 groups). The first one (series 1) includes APRn with no C3 substituent (R1═R′1═H) whereas series 2, 3 and 4 are related to APRn bearing a methoxyl (R1═OMe), a hydroxyl (R1═OH) and a fluorine atom (R1═F), respectively. The agonist/antagonist activities of APRn were determined either in human HEK293T cells transiently expressing hPRB or in human MDA-MB-231 iPRAB cells conditionally expressing hPRB, by using a luciferase reporter gene placed under the control of a glucocorticoid response element (GRE2-Luc). The APRn “agonist efficacy” was determined from the luciferase activity measured in the presence of APRn (1 μM). […] The “agonist efficacy” and “antagonist efficacy” are expressed as defined in the biological protocols section.

[1] = series 2-4, stated for both HEK293T and MDA-MB-231 iPRAB cells, APRn 1 μM, FIGS. 3-8
[2] = series 1 (no C3 substituent), HEK293T, APRn 1 μM, FIG. 1

| Structure (SMILES) | melting point [°C] | hPRB agonist/antagonist character (in words) (hPRB; [1]) | hPRB agonist/antagonist character (in words) (hPRB; [2]) | also measured |
| --- | --- | --- | --- | --- |
| CC1CCC2C3CCC4=CC(=O)CC[C@]4(C)C3CC[C@]2(C)[C@H]1F (stereo partly drawn) | 170 to 171 | – | – | – |
| CO[C@H]1CC[C@@]2(C)C(=CC[C@H]3[C@@H]4CC[C@H](C(C)O)[C@@]4(C)CC[C@@H]32)C1 (mixture of isomers) [APR-27, 3β-Methoxypregn-5-en-20-ol] | 124 to 125 | antagonist character without any agonist activity | – | – |
| CO[C@H]1CC[C@@]2(C)[C@@H](CC[C@@H]3[C@@H]2CC[C@]2(C)[C@@H](C(C)O)CC[C@@H]32)C1 (mixture of isomers) [APR-28, 3β-Methoxy-5α-pregnan-20-ol] | – | antagonist character without any agonist activity | – | – |
| CC(O)[C@H]1CC[C@H]2[C@@H]3CC[C@H]4C[C@@H](O)CC[C@]4(C)[C@H]3CC[C@]12C (mixture of isomers) [APR-29, 5α-Pregnan-3β,20-diol] | – | able to activate hPRB, but their agonist efficacies are low | – | – |
| CC1CCC2C3CCC4=CC(O)CC[C@]4(C)C3CC[C@]2(C)[C@H]1F (single isomer, unassigned) [APR-07, 17aβ-Fluoro-17α-methyl-D-homo-pregn-4-en-3-ol] | 125 to 126 | most potent hPRB antagonist in this series | – | – |
| CC(=O)[C@H]1CC[C@H]2[C@@H]3CC[C@H]4CCCC[C@]4(C)[C@H]3CC[C@]12C [APR-01, 5α-pregnan-20-one] | – | – | partial hPRB agonist | antagonist efficacy (hPRB; HEK293T, APRn 1 μM plus progesterone 1 nM, FIG. 1): 48%; efficacy to activate hPRB (agonist efficacy) (hPRB; HEK293T, APRn 1 μM, relative to 1 nM progesterone, FIG. 1): 30% |
| CO[C@H]1CC[C@@]2(C)C(=CC[C@H]3[C@@H]4CC[C@H](C(C)=O)[C@@]4(C)CC[C@@H]32)C1 [APR-02, 3β-Methoxypregn-5-en-20-one] | – | most potent molecules | – | hPRB agonist/antagonist character (in words) (hPRB; series 2-4, stated for both HEK293T and MDA-MB-231 iPRAB cells, APRn 1 μM, FIGS. 3-8, listed as APR2): antagonist character without any agonist activity |
| CC1CCC2C3CC=C4CC5(CC[C@]4(C)C3CC[C@]2(C)[C@H]1F)OCCO5 (stereo partly drawn) [APR-05, 17aβ-Fluoro-17α-methyl-D-homo-3-ethylenedioxo-5-androstene] | 146 to 147 | – | – | – |
| CC1CCC2C3CC=C4C=CCC[C@]4(C)C3CC[C@]2(C)[C@H]1F (stereo partly drawn) [APR-08, 17aβ-Fluoro-17α-methyl-D-homo-pregn-3,5-diene] | – | – | partial antagonist | hPRB agonist/antagonist character (in words) (hPRB; series 1 (no C3 substituent), HEK293T, APRn 1 μM, FIG. 1, listed as APR-8): full antagonists |
| C[C@H](O)[C@H]1CCC2C3CCC4CCCC[C@]4(C)C3CC[C@@]21C (stereo partly drawn) [APR-10, 20-Hydroxypregnane] | – | – | full antagonists | – |
| C[C@H](O)[C@H]1CCC2C3CC=C4C=CCC[C@]4(C)C3CC[C@@]21C (stereo partly drawn) [APR-11, pregn-3,5-dien-20-ol] | 103 to 104 | – | full antagonists | – |
| CC(=O)[C@H]1CC[C@H]2[C@@H]3CC=C4C=CCC[C@]4(C)[C@H]3CC[C@]12C [APR-12, Pregn-3,5-dien-20-one] | 135 to 136 | – | partial antagonist | – |
| CC(=O)O[C@@H](C)[C@H]1CC[C@H]2[C@@H]3CC[C@H]4CCCC[C@]4(C)[C@H]3CC[C@]12C [APR-13, 20-Acetoxy-5α-pregnane] | – | – | full antagonists | – |
| C[C@]12CCCC[C@@H]1CC[C@@H]1[C@@H]2CC[C@]2(C)[C@@H](O)CC[C@@H]12 [APR-14, 5α-Androstan-17β-ol] | – | – | full antagonists | – |
| CC(=O)[C@H]1CC[C@H]2[C@@H]3CC=C4C[C@@H](O)CC[C@]4(C)[C@H]3CC[C@]12C [APR-15, 3β-Hydroxypregn-5-en-20-one] | – | able to activate hPRB, but their agonist efficacies are low | – | – |
| CC(=O)[C@H]1CC[C@H]2[C@@H]3CC[C@H]4C[C@@H](O)CC[C@]4(C)[C@H]3CC[C@]12C [APR-20, 3β-Hydroxy-5α-pregnan-20-one] | – | able to activate hPRB, but their agonist efficacies are low | – | – |
| C#CC(C)(O)[C@H]1CC[C@H]2[C@@H]3CC=C4C[C@@H](F)CC[C@]4(C)[C@H]3CC[C@]12C (stereo partly drawn) [APR-21, 20-Ethynyl-3β-fluoropregn-5-en-20-ol] | 213 to 214 | – | – | – |
| CO[C@H]1CC[C@@]2(C)[C@@H](CC[C@@H]3[C@@H]2CC[C@]2(C)[C@@H](C(C)=O)CC[C@@H]32)C1 [APR-22, 3β-Methoxy-5α-pregnan-20-one] | 125 to 126 | antagonist character without any agonist activity; also recorded: most potent molecules | – | – |
| C[C@]12CCCC[C@@H]1CC[C@@H]1[C@@H]2CC[C@]2(C)C(=O)CC[C@@H]12 [APR-23, 5α-Androstan-17-one] | 120 to 121 | – | full antagonists | – |
| C[C@H](O)[C@H]1CC[C@H]2[C@@H]3CC=C4C[C@@H](F)CC[C@]4(C)[C@H]3CC[C@]12C [APR-24, 3β-Fluoropregn-5-en-20-ol] | – | efficient hPRB antagonists | – | – |
| C#CC(C)(O)[C@H]1CC[C@H]2[C@@H]3CC[C@H]4C[C@@H](F)CC[C@]4(C)[C@H]3CC[C@]12C (stereo partly drawn) [APR-26, 20-Ethynyl-3β-fluoro-5α-pregnan-20-ol] | 230 to 231 | – | – | – |
| C#CC(C)(O)[C@H]1CC[C@H]2[C@@H]3CC[C@H]4C[C@@H](OC)CC[C@]4(C)[C@H]3CC[C@]12C (stereo partly drawn) [APR-30, 20-Ethynyl-3β-methoxy-5α-pregnan-20-ol] | 168 to 169 | – | – | – |
| C[C@]12CC[C@H]3[C@@H](CC=C4C[C@@H](F)CC[C@@]43C)[C@@H]1CC[C@@H]2O [APR-41, 3β-Fluoro-androst-5-en-17β-ol] | 165 to 166 | – | – | – |
| C[C@]12CCC3C(CC=C4C[C@@H](O)CC[C@@H]43)C1CC[C@@H]2O (stereo partly drawn) [APR-48, 19-nor-Androst-5-en-3β,17β-diol] | – | Except for APR48, the molecules of this series behave as antagonists | – | – |
| C[C@]12CCC3C(CC[C@H]4CCCC[C@H]34)C1CC[C@@H]2O (stereo partly drawn) [APR-52, 19-nor-5-Androstan-17β-ol] | – | – | full antagonists | – |
| C#C[C@]1(O)CCC2C3CC[C@H]4CCCC[C@@H]4C3CC[C@@]21C (stereo partly drawn) [APR-56, 17α-Ethynyl-19-nor-5-androstan-17β-ol] | – | – | full antagonists | – |
